# Test system: B. subtilis ATCC 6633
# Assay: Microdilution MIC/MMC with resazurin
# Type: cell-based, Bacillus subtilis
# Conditions: B. subtilis ATCC 6633; compounds 1–8
# Experimental: (§1) The antimicrobial activity was evaluated against 15 microorganisms. This included 11 bacterial strains: four standard strains (Staphylococcus aureus ATCC 25923, Bacillus subtilis ATCC 6633, Bacillus pumilus NCTC 8241, and Escherichia coli ATCC 25922) and six clinical or environmental isolates (Staphylococcus aureus, Escherichia coli, Bacillus cereus, Proteus mirabilis, Salmonella enterica, and Klebsiella pneumoniae). One probiotic strain, Bifidobacterium animalis subsp. lactis was tested. In addition, four fungal strains, Candida albicans ATCC 10231, Trichoderma viride ATCC 13233, Aspergillus flavus ATCC 9170, and Fusarium solani ATCC 11712 were tested. The bacterial strains were kept in glycerol stock at −80 °C and the fungal strains in paraffin oil stock at 4 °C.
# (§2) Bacterial and yeast suspensions were prepared using the direct colony method, as previously described by Andrews. The turbidity of the initial suspensions was adjusted to match the 0.5 McFarland standard using a densitometer (Biosan, Riga, Latvia), corresponding to approximately 10^8 colony-forming units (CFU)/mL for bacterial cells and 10^6 CFU/mL for yeast cells. Subsequently, 1:100 dilutions of the initial suspensions were prepared in sterile 0.85% saline. Fungal spore suspensions were obtained by gently harvesting spores from agar slopes containing mature mycelial growth. The collected spore suspensions were then diluted 1:1000 in sterile 0.85% saline prior to use.
# (§3) Antimicrobial activity was evaluated by determining the minimum inhibitory concentration (MIC) and minimum microbicidal concentration (MMC) using the microdilution plate method with resazurin as an indicator [28]. In the 96-well plates, 100 μL of Mueller–Hinton broth (Torlak, Belgrade, Serbia) for bacterial testing and Sabouraud broth (Torlak, Belgrade, Serbia) for fungal testing were dispensed into each well. The compounds under investigation were initially dissolved in a 10% dimethyl sulfoxide (DMSO) solution, followed by dilution in sterile distilled water, resulting in a working compound solution containing 1% DMSO. A 100 μL aliquot of the stock solution of the tested compound was added to the first row, and twofold serial dilutions were then carried out using a multichannel pipette. The resulting concentration range was from 5 to 0.039 mg/mL. The inoculated microtiter plates were incubated at 37 °C for 24 h for bacteria, at 28 °C for 48 h for yeasts, and at 28 °C for 72 h for molds.
# (§4) Each test also included growth control and sterility control. All tests were conducted in duplicate. MIC was defined as the lowest concentration of tested compounds that prevented resazurin color change from blue to pink. For molds, MIC values of the tested compound were determined as the lowest concentration that inhibited visible mycelia growth. MMC was determined by inoculation of the nutrient agar medium by plating […] of samples from wells, where no indicator color change was recorded. At the end of the incubation period, the lowest concentration with no growth (no colony) was defined as MMC.
# (§5) Doxycycline, ampicillin and amphotericin B (- Sigma-Aldrich, St. Louis, MO, USA) and ketoconazole (Hemofarm A.D., Vršac, Serbia) were dissolved in a nutrient liquid medium. Doxycycline is a broad-spectrum antibiotic effective against both aerobic and anaerobic Gram-positive and Gram-negative bacteria. Ampicillin, a beta-lactam antibiotic, primarily targets Gram-positive bacteria but also some Gram-negative strains. Amphotericin B is an antifungal drug often used for serious systemic fungal infections and is one of the effective treatments for fungal infections caused by Aspergillus sp. Ketoconazole is an antifungal agent used to inhibit the growth of Candida species.
row,Structure (SMILES),MMC
1,"O=C1NCC(c2ccccc2)S1 (centres unmarked) [Compound 6, 5-phenyl-1,3-thiazolidin-2-one]",>5 mg/mL

# Same assay, conditions: Bacillus subtilis, ATCC6633; B. subtilis ATCC 6633; compounds 1–8; read-out: MIC
row,Structure (SMILES),MIC
1,"O=C1NCC(c2ccccc2)S1 (centres unmarked) [Compound 6, 5-phenyl-1,3-thiazolidin-2-one]",> 5000 µg/mL

# Test system: B. cereus
# Assay: Microdilution MIC/MMC with resazurin
# Type: cell-based, Bacillus cereus
# Conditions: B. cereus; compounds 1–8
# Experimental: as §1, §2, §3, §4, §5
row,Structure (SMILES),MMC
1,"O=C1NCC(c2ccccc2)S1 (centres unmarked) [Compound 6, 5-phenyl-1,3-thiazolidin-2-one]",>5 mg/mL

# Same assay, conditions: Bacillus cereus; B. cereus; compounds 1–8; read-out: MIC
row,Structure (SMILES),MIC
1,"O=C1NCC(c2ccccc2)S1 (centres unmarked) [Compound 6, 5-phenyl-1,3-thiazolidin-2-one]",> 5000 µg/mL

# Test system: B. pumilus NCTC 8241
# Assay: Microdilution MIC/MMC with resazurin
# Type: cell-based, Bacillus pumilus
# Conditions: B. pumilus NCTC 8241; compounds 1–8
# Experimental: as §1, §2, §3, §4, §5
row,Structure (SMILES),MMC
1,"O=C1NCC(c2ccccc2)S1 (centres unmarked) [Compound 6, 5-phenyl-1,3-thiazolidin-2-one]",>5 mg/mL

# Same assay, conditions: Bacillus pumilus, NCTC8241; B. pumilus NCTC 8241; compounds 1–8; read-out: MIC
row,Structure (SMILES),MIC
1,"O=C1NCC(c2ccccc2)S1 (centres unmarked) [Compound 6, 5-phenyl-1,3-thiazolidin-2-one]",> 5000 µg/mL

# Test system: S. aureus ATCC 25923
# Assay: Microdilution MIC/MMC with resazurin
# Type: cell-based, Staphylococcus aureus
# Conditions: S. aureus ATCC 25923; compounds 1–8
# Experimental: as §1, §2, §3, §4, §5
row,Structure (SMILES),MMC
1,"O=C1NCC(c2ccccc2)S1 (centres unmarked) [Compound 6, 5-phenyl-1,3-thiazolidin-2-one]",>5 mg/mL

# Same assay, conditions: Staphylococcus aureus, ATCC25923; S. aureus ATCC 25923; compounds 1–8; read-out: MIC
row,Structure (SMILES),MIC
1,"O=C1NCC(c2ccccc2)S1 (centres unmarked) [Compound 6, 5-phenyl-1,3-thiazolidin-2-one]",> 5000 µg/mL

# Test system: S. aureus
# Assay: Microdilution MIC/MMC with resazurin
# Type: cell-based, Staphylococcus aureus
# Conditions: S. aureus isolate; compounds 1–8
# Experimental: as §1, §2, §3, §4, §5
row,Structure (SMILES),MMC
1,"O=C1NCC(c2ccccc2)S1 (centres unmarked) [Compound 6, 5-phenyl-1,3-thiazolidin-2-one]",>5 mg/mL

# Same assay, conditions: Staphylococcus aureus; S. aureus isolate; compounds 1–8; read-out: MIC
row,Structure (SMILES),MIC
1,"O=C1NCC(c2ccccc2)S1 (centres unmarked) [Compound 6, 5-phenyl-1,3-thiazolidin-2-one]",> 5000 µg/mL

# Test system: E. coli ATCC 25922
# Assay: Microdilution MIC/MMC with resazurin
# Type: cell-based, Escherichia coli
# Conditions: E. coli ATCC 25922; compounds 1–8
# Experimental: as §1, §2, §3, §4, §5
row,Structure (SMILES),MMC
1,"O=C1NCC(c2ccccc2)S1 (centres unmarked) [Compound 6, 5-phenyl-1,3-thiazolidin-2-one]",>5 mg/mL

# Same assay, conditions: Escherichia coli, ATCC25922; E. coli ATCC 25922; compounds 1–8; read-out: MIC
row,Structure (SMILES),MIC
1,"O=C1NCC(c2ccccc2)S1 (centres unmarked) [Compound 6, 5-phenyl-1,3-thiazolidin-2-one]",> 5000 µg/mL

# Test system: E. coli
# Assay: Microdilution MIC/MMC with resazurin
# Type: cell-based, Escherichia coli
# Conditions: E. coli isolate; compounds 1–8
# Experimental: as §1, §2, §3, §4, §5
row,Structure (SMILES),MMC
1,"O=C1NCC(c2ccccc2)S1 (centres unmarked) [Compound 6, 5-phenyl-1,3-thiazolidin-2-one]",>5 mg/mL

# Same assay, conditions: Escherichia coli; E. coli isolate; compounds 1–8; read-out: MIC
row,Structure (SMILES),MIC
1,"O=C1NCC(c2ccccc2)S1 (centres unmarked) [Compound 6, 5-phenyl-1,3-thiazolidin-2-one]",> 5000 µg/mL

# Test system: P. mirabilis
# Assay: Microdilution MIC/MMC with resazurin
# Type: cell-based, Proteus mirabilis
# Conditions: P. mirabilis; compounds 1–8
# Experimental: as §1, §2, §3, §4, §5
row,Structure (SMILES),MMC
1,"O=C1NCC(c2ccccc2)S1 (centres unmarked) [Compound 6, 5-phenyl-1,3-thiazolidin-2-one]",>5 mg/mL

# Same assay, conditions: Proteus mirabilis; P. mirabilis; compounds 1–8; read-out: MIC
row,Structure (SMILES),MIC
1,"O=C1NCC(c2ccccc2)S1 (centres unmarked) [Compound 6, 5-phenyl-1,3-thiazolidin-2-one]",> 5000 µg/mL

# Test system: S. enterica
# Assay: Microdilution MIC/MMC with resazurin
# Type: cell-based, Salmonella enterica
# Conditions: Salmonella enterica, compounds 1–8
# Experimental: as §1, §2, §3, §4, §5
row,Structure (SMILES),MIC
1,"O=C1NCC(c2ccccc2)S1 (centres unmarked) [Compound 6, 5-phenyl-1,3-thiazolidin-2-one]",> 5000 µg/mL

# Same assay, conditions: compounds 1–8
row,Structure (SMILES),MMC
1,"O=C1NCC(c2ccccc2)S1 (centres unmarked) [Compound 6, 5-phenyl-1,3-thiazolidin-2-one]",>5 mg/mL

# Test system: K. pneumoniae
# Assay: Microdilution MIC/MMC with resazurin
# Type: cell-based, Klebsiella pneumoniae
# Conditions: K. pneumoniae; compounds 1–8
# Experimental: as §1, §2, §3, §4, §5
row,Structure (SMILES),MMC
1,"O=C1NCC(c2ccccc2)S1 (centres unmarked) [Compound 6, 5-phenyl-1,3-thiazolidin-2-one]",>5 mg/mL

# Same assay, conditions: Klebsiella pneumoniae; K. pneumoniae; compounds 1–8; read-out: MIC
row,Structure (SMILES),MIC
1,"O=C1NCC(c2ccccc2)S1 (centres unmarked) [Compound 6, 5-phenyl-1,3-thiazolidin-2-one]",> 5000 µg/mL

# Test system: T. viride ATCC 13233
# Assay: Microdilution MIC/MMC
# Type: cell-based, Trichoderma viride
# Conditions: T. viride ATCC 13233; compounds 1–8
# Experimental: as §1, §2, §3, §4, §5
row,Structure (SMILES),MMC
1,"O=C1NCC(c2ccccc2)S1 (centres unmarked) [Compound 6, 5-phenyl-1,3-thiazolidin-2-one]",>5 mg/mL

# Same assay, conditions: Trichoderma viride, ATCC13233; T. viride ATCC 13233; compounds 1–8; read-out: MIC
row,Structure (SMILES),MIC
1,"O=C1NCC(c2ccccc2)S1 (centres unmarked) [Compound 6, 5-phenyl-1,3-thiazolidin-2-one]",> 5000 µg/mL

# Test system: A. flavus ATCC 9170
# Assay: Microdilution MIC/MMC
# Type: cell-based, Aspergillus flavus
# Conditions: A. flavus ATCC 9170; compounds 1–8
# Experimental: as §1, §2, §3, §4, §5
row,Structure (SMILES),MMC
1,"O=C1NCC(c2ccccc2)S1 (centres unmarked) [Compound 6, 5-phenyl-1,3-thiazolidin-2-one]",>5 mg/mL

# Same assay, conditions: Aspergillus flavus, ATCC9170; A. flavus ATCC 9170; compounds 1–8; read-out: MIC
row,Structure (SMILES),MIC
1,"O=C1NCC(c2ccccc2)S1 (centres unmarked) [Compound 6, 5-phenyl-1,3-thiazolidin-2-one]",> 5000 µg/mL

# Test system: F. solani ATCC 11712
# Assay: Microdilution MIC/MMC
# Type: cell-based, Fusarium solani
# Conditions: F. solani ATCC 11712; compounds 1–8
# Experimental: as §1, §2, §3, §4, §5
row,Structure (SMILES),MMC
1,"O=C1NCC(c2ccccc2)S1 (centres unmarked) [Compound 6, 5-phenyl-1,3-thiazolidin-2-one]",>5 mg/mL

# Same assay, conditions: Fusarium solani, ATCC11712; F. solani ATCC 11712; compounds 1–8; read-out: MIC
row,Structure (SMILES),MIC
1,"O=C1NCC(c2ccccc2)S1 (centres unmarked) [Compound 6, 5-phenyl-1,3-thiazolidin-2-one]",> 5000 µg/mL

# Test system: not listed separately
# Assay: ABTS radical scavenging assay
# Conditions: 25 µM; mean ± SD
# Experimental: The ABTS radical cation solution was prepared following the previously described protocol. Different concentrations of the analyzed samples were prepared in DMSO. The test samples were prepared following the specified procedure: 20 µL of sample was combined with 980 µL of methanol, followed by the addition of 1000 µL of ABTS solution. Absorbance was measured at 734 nm. All measurements were performed in triplicate.
row,Structure (SMILES),ABTS Scavenging Ability
1,"O=C1NCC(c2ccccc2)S1 (centres unmarked) [Compound 6, 5-phenyl-1,3-thiazolidin-2-one]",2.6 ± 0.7%

# Same assay, conditions: 50 µM; mean ± SD
row,Structure (SMILES),ABTS Scavenging Ability
1,"O=C1NCC(c2ccccc2)S1 (centres unmarked) [Compound 6, 5-phenyl-1,3-thiazolidin-2-one]",3.9 ± 1.2%

# Same assay, conditions: 100 µM; mean ± SD
row,Structure (SMILES),ABTS Scavenging Ability
1,"O=C1NCC(c2ccccc2)S1 (centres unmarked) [Compound 6, 5-phenyl-1,3-thiazolidin-2-one]",5.1 ± 0.9%
